In patent publication US20090099214A1, “Organic Compounds” (Novartis AG, priority 2006, published 2009) one finds Ki data, which are given here for 5 compounds.

pKi: −log10 of the molar value. Counter-ions that a name gives are not always drawn.

Sequence of adenosine A2a receptor (P29274 whole entry): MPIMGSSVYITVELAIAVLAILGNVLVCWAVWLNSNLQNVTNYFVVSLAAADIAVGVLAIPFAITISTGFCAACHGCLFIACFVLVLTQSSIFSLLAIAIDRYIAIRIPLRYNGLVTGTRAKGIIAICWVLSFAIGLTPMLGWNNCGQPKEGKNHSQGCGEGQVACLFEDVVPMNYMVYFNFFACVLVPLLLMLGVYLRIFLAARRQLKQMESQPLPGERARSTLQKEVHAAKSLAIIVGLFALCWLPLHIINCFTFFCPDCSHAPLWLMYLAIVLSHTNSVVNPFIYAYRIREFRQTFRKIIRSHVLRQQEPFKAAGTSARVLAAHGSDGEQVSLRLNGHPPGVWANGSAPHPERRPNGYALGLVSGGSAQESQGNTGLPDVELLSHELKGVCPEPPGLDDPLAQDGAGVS

For the assay, the target named is adenosine A2a receptor (Homo sapiens, UniProt P29274). Description: adenosine A2a receptor agonist test (method of Murphree et al / Hannon et al). In kind it is binding. How it is done:
Compounds of formula I and their pharmaceutically acceptable salts are useful as pharmaceuticals. In particular, they activate the adenosine A2a receptor activation, i.e. they act as A2a receptor agonists.
For example, the compounds of Examples 7, 8, 17, 19, and 38 have Ki values of 0.003, 0.002, 0.011, 0.008, and 0.007 μM respectively.
`CCC(=O)N[C@H]1C[C@@H](n2cnc3c(NCC(c4ccc(OC)cc4)c4ccc(OC)cc4)nc(N4CC[C@@H](NC(=O)N[C@@H]5CCNC5)C4)nc32)[C@H](O)[C@@H]1O` [Example 7, N-((1S,2R,3S,4R)-4-{6-[2,2-Bis-(4-methoxy-phenyl)-ethylamino]-2-[(R)-3-((R)-3-pyrrolidin-3-ylureido)-pyrrolidin-1-yl]-purin-9-yl}-2,3-dihydroxy-cyclopentyl)-propionamide trifluoroacetate] had a pKi of 8.52.
As for `CCC(=O)N[C@H]1C[C@@H](n2cnc3c(NCC(c4ccccc4)c4ccc(F)cc4)nc(N4CC[C@@H](NC(=O)N[C@@H]5CCNC5)C4)nc32)[C@H](O)[C@@H]1O` (stereo partly drawn) [Example 8, N-((1S,2R,3S,4R)-4-{6-[2-(4-fluoro-phenyl)-2-phenyl-ethylamino]-2-[(R)-3-((R)-3-pyrrolidin-3-ylureido)-pyrrolidin-1-yl]-purin-9-yl}-2,3-dihydroxy-cyclopentyl)-propionamide trifluoroacetate], the figure is 8.70; as for `CCC(=O)N[C@H]1C[C@@H](n2cnc3c(NCCc4ccccc4-c4ccccc4)nc(N4CC[C@@H](NC(=O)N[C@@H]5CCNC5)C4)nc32)[C@H](O)[C@@H]1O` [Example 17, N-((1S,2R,3S,4R)-4-{6-(2-biphenyl-2-yl-ethylamino)-2-[(R)-3-((R)-3-pyrrolidin-3-ylureido)-pyrrolidin-1-yl]-purin-9-yl}-2,3-dihydroxy-cyclopentyl)-propionamide trifluoroacetate], 7.96.
Compound `CCC(=O)N[C@H]1C[C@@H](n2cnc3c(NCC(c4ccc(OC)c(OC)c4)c4ccc(OC)c(OC)c4)nc(N4CC[C@@H](NC(=O)N[C@@H]5CCNC5)C4)nc32)[C@H](O)[C@@H]1O` [Example 19, N-((1S,2R,3S,4R)-4-{6-[2,2-bis-(3,4-dimethoxy-phenyl)-ethylamino]-2-[(R)-3-((R)-3-pyrrolidin-3-ylureido)-pyrrolidin-1-yl]-purin-9-yl}-2,3-dihydroxy-cyclopentyl)-propionamide trifluoroacetate] showed a negative logarithm of the Ki (pKi) of 8.10.
Take `CCC(=O)N[C@H]1C[C@@H](n2cnc3c(NCC(c4ccccc4)c4ccc(F)cc4)nc(NC4CCC(N)CC4)nc32)[C@H](O)[C@@H]1O` (stereo partly drawn) [Example 38, N-((1S,2R,3S,4R)-4-{2-(4-Amino-cyclohexylamino)-6-[2-(4-fluoro-phenyl)-2-phenyl-ethylamino]-purin-9-yl}-2,3-dihydroxy-cyclopentyl)-propionamide trifluoroacetate]: the pKi was 8.15.
